From ChEMBL document CHEMBL1201862, “PubChem BioAssay data set” (2004)
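Values below derive from 48-hour exposures of cells grown in 96-well plates, with endpoints linearly interpolated between the two concentrations bracketing the appropriate inhibition level. GI50 = concentration required for 50% inhibition of growth.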 Activity calls are given as the source filed them. Cut-off read from the data, not from the text of the source: active = GI50 up to about 1.1 µM and inactive = higher.

Experiments:
Test in all cases: NCI tumour cell line growth inhibition, 48 h
[1] = test system: A549
[2] = test system: CAKI-1
[3] = test system: CCRF-CEM
[4] = test system: EKVX
[5] = test system: HCT-15
[6] = test system: IGROV-1
[7] = test system: MCF7
[8] = test system: NCI-H23
[9] = test system: OVCAR-4
[10] = test system: PC-3
[11] = test system: SK-MEL-2
[12] = test system: SN12C
[13] = test system: SNB-19
[14] = test system: SNB-75
[15] = test system: T47D
[16] = test system: U-251
[17] = test system: UACC-257
[18] = test system: DMS-114

For `CCOC1OC(COC(=O)C(C)(C)C)C(O)CC1n1cc(C)c(=O)[nH]c1=O` (stereo not drawn), the GI50 [1] was > 100 µM (inactive), the GI50 [2] was > 100 µM (inactive) and the GI50 [3] was > 100 µM (inactive). The GI50 [4] was > 100 µM (inactive), the GI50 [5] was greater than 100 µM and the GI50 [6] was > 100 µM (inactive). The GI50 [7] was > 100 µM (inactive), the GI50 [8] was > 100 µM (inactive) and the GI50 [9] was > 100 µM (inactive). The GI50 [10] was > 100 µM (inactive), the GI50 [11] was > 100 µM (inactive) and the GI50 [12] was > 100 µM (inactive). For the same molecule, the GI50 [13] was > 100 µM (inactive), the GI50 [14] was > 100 µM (inactive) and the GI50 [15] was > 100 µM (inactive). For the same molecule, the GI50 [16] was > 100 µM (inactive) and the GI50 [17] was > 100 µM (inactive).

`O=C1C2=C(C(=O)c3c(O)ccc(O)c31)[C@@H](O)[C@@H](O)[C@@H](O)C2` was tested, and the GI50 [1] was 3.21 µM (inactive), the GI50 [2] was 1.37 µM (inactive) and the GI50 [3] was 0.0486 µM (active). For the same molecule, the GI50 [4] was 2.77 µM (inactive), the GI50 [5] was 2.76 µM and the GI50 [6] was 2.75 µM (inactive). For the same molecule, the GI50 [7] was 1.11 µM (active), the GI50 [8] was 1.96 µM (inactive) and the GI50 [9] was 1.93 µM (inactive). The GI50 [10] was 2.66 µM (inactive), the GI50 [11] was 1.73 µM (inactive) and the GI50 [12] was 2.01 µM (inactive). For the same molecule, the GI50 [13] was 13.1 µM (inactive), the GI50 [14] was 3.43 µM (inactive) and the GI50 [15] was 1.1 µM (active). For the same molecule, the GI50 [16] was 4.82 µM (inactive) and the GI50 [17] was 0.957 µM (active).

`CS[C@]12[C@@H]3C(=O)N(C)C(=O)[C@@H]3[C@](C)(C(=O)N1C)C(=O)N2c1ccccc1` was tested, and the GI50 [1] was > 100 µM (inactive), the GI50 [2] was > 100 µM (inactive) and the GI50 [3] was > 100 µM (inactive). The GI50 [4] was > 100 µM (inactive), the GI50 [5] was greater than 100 µM and the GI50 [6] was > 100 µM (inactive). The GI50 [7] was > 100 µM (inactive), the GI50 [8] was > 100 µM (inactive) and the GI50 [9] was > 100 µM (inactive). The GI50 [10] was > 100 µM (inactive), the GI50 [11] was > 100 µM (inactive) and the GI50 [12] was > 100 µM (inactive). For the same molecule, the GI50 [13] was > 100 µM (inactive), the GI50 [14] was > 100 µM (inactive) and the GI50 [15] was > 100 µM (inactive). For the same molecule, the GI50 [16] was > 100 µM (inactive) and the GI50 [17] was > 100 µM (inactive).

For `CCOC(CCNCC(OCC)OCC)OCC`, the GI50 [1] was > 10 µM (inactive), the GI50 [2] was > 10 µM (inactive) and the GI50 [3] was > 10 µM (inactive). The GI50 [4] was > 10 µM (inactive), the GI50 [5] was greater than 10 µM and the GI50 [6] was > 10 µM (inactive). The GI50 [7] was > 10 µM (inactive), the GI50 [8] was > 10 µM (inactive) and the GI50 [9] was > 10 µM (inactive). The GI50 [10] was > 10 µM (inactive), the GI50 [11] was > 10 µM (inactive) and the GI50 [12] was > 10 µM (inactive). For the same molecule, the GI50 [13] was > 10 µM (inactive), the GI50 [14] was > 10 µM (inactive) and the GI50 [15] was > 10 µM (inactive). The GI50 [16] was > 10 µM (inactive) and the GI50 [17] was > 10 µM (inactive).

With `Cc1cc2c(cc1C)C(=O)c1ncccc1C2=O` the GI50 [1] was 22.7 µM (inactive), the GI50 [2] was 36.6 µM (inactive) and the GI50 [3] was 30.4 µM (inactive). For the same molecule, the GI50 [4] was 17.4 µM (inactive), the GI50 [5] was 26.5 µM and the GI50 [6] was 31.2 µM (inactive). For the same molecule, the GI50 [7] was 20.2 µM (inactive), the GI50 [8] was 15.6 µM (inactive) and the GI50 [9] was 21.9 µM (inactive). The GI50 [10] was 29 µM (inactive), the GI50 [11] was 48.5 µM (inactive) and the GI50 [12] was 22.6 µM (inactive). The GI50 [13] was 34.8 µM (inactive), the GI50 [14] was 54.5 µM (inactive) and the GI50 [15] was 34.8 µM (inactive). The GI50 [16] was 35.7 µM (inactive) and the GI50 [17] was 18.7 µM (inactive).

For `CC(=O)NNc1nc(C)c(C(/C=C/c2ccc(/C=C/C(=N\NC(=O)c3ccncc3)c3sc(NNC(C)=O)nc3C)cc2)=N/NC(=O)c2ccncc2)s1`, the GI50 [1] was > 100 µM (inactive), the GI50 [2] was > 100 µM (inactive) and the GI50 [3] was > 100 µM (inactive). The GI50 [18] was > 100 µM (inactive), the GI50 [4] was > 100 µM (inactive) and the GI50 [5] was greater than 100 µM. For the same molecule, the GI50 [6] was > 100 µM (inactive), the GI50 [8] was > 100 µM (inactive) and the GI50 [11] was > 100 µM (inactive). For the same molecule, the GI50 [12] was > 100 µM (inactive), the GI50 [13] was > 100 µM (inactive) and the GI50 [14] was > 100 µM (inactive). For the same molecule, the GI50 [16] was > 100 µM (inactive) and the GI50 [17] was 44.5 µM (inactive).

For `CC1CN=C(N(C(=O)Nc2ccccc2)c2ccccc2)S1` (stereo not drawn), the GI50 [1] was 33.4 µM (inactive), the GI50 [2] was 27 µM (inactive) and the GI50 [3] was 23.4 µM (inactive). For the same molecule, the GI50 [4] was 29 µM (inactive), the GI50 [5] was 37.2 µM and the GI50 [6] was 42.6 µM (inactive). The GI50 [7] was 8.99 µM (inactive), the GI50 [8] was 35.4 µM (inactive) and the GI50 [9] was 19.5 µM (inactive). The GI50 [10] was 36.6 µM (inactive), the GI50 [11] was 20.8 µM (inactive) and the GI50 [12] was 25.2 µM (inactive). For the same molecule, the GI50 [13] was 88.1 µM (inactive), the GI50 [14] was 13.3 µM (inactive) and the GI50 [15] was 24.9 µM (inactive). The GI50 [16] was 37.7 µM (inactive) and the GI50 [17] was 17.1 µM (inactive).

For `COC(=O)C(Cc1ccccc1)NP(=O)(O)OCC1OC(n2ccc(N)nc2=O)C(O)C1O` (stereo not drawn), the GI50 [1] was > 100 µM (inactive), the GI50 [2] was > 100 µM (inactive) and the GI50 [3] was 50.9 µM (inactive). For the same molecule, the GI50 [4] was > 100 µM (inactive), the GI50 [5] was greater than 100 µM and the GI50 [6] was > 100 µM (inactive). For the same molecule, the GI50 [7] was > 100 µM (inactive), the GI50 [8] was > 100 µM (inactive) and the GI50 [9] was > 100 µM (inactive). The GI50 [10] was > 100 µM (inactive), the GI50 [11] was > 100 µM (inactive) and the GI50 [12] was > 100 µM (inactive). The GI50 [13] was > 100 µM (inactive), the GI50 [14] was > 100 µM (inactive) and the GI50 [15] was > 100 µM (inactive). The GI50 [16] was > 100 µM (inactive) and the GI50 [17] was > 100 µM (inactive).
